Active and inactive are the calls of the source. The rule behind the calls is not given here.
Tested on: BMDM
Assay: Anti-osteoclastogenesis activity in RANKL-induced C57BL/6 mouse BMDM cells assessed as suppression of late stage osteoclast differentiation at 10 uM incubated from day 3 to day 5 in the presence of M-CSF by TRAP-staining based microscopic analysis
Format: functional, cell-based
Details: time 2.0 day

**Q.** Which Activity does the source give for `C=C1[C@H]2O[C@]3([C@@H](C)C(=O)O[C@H]3[C@H]1Cl)[C@@H](OC(C)=O)[C@H]1[C@]3(CC[C@H](OC(C)=O)[C@]1(C)[C@@H](OC(C)=O)[C@@H]2OC(C)=O)CO3` here?
**A.** The Activity was “Active”.

Source: ChEMBL document CHEMBL5331068, “Briarane-type diterpenoids, the inhibitors of osteoclast formation by interrupting Keap1-Nrf2 interaction and activating Nrf2 pathway” (Eur J Med Chem, 2023)
